According to US11279735B2, “Cyclic peptide antibiotics” (priority 2017, dated 2022):
Converted amounts (≈) assume the structure as drawn. *1 amine or outer side, *2 acyl side, *3 side chain or, on linkers, in order; H or OH if unused. Where a SMILES comes first, the peptide text is derived from it. [ ]: non-standard residue; d: D form. X18 = CCCCCC[C@@H](OCCN[*:1])[C@@H](Cc1ccc(C)cc1)C(=O)[*:2]; X2 = CCCCCC[C@@H](OC[C@@H](C)N[*:1])[C@@H](C)C(=O)[*:2]; X14 = CCCCCC[C@@H](OCCN[*:1])[C@@H](C)C(=O)[*:2]; aIle = CC[C@@H](C)[C@H](N)C(=O)O; aThr = C[C@H](O)[C@H](N)C(=O)O; NMeL = CN[C@@H](CC(C)C)C(=O)O; Chg = N[C@H](C(=O)O)C1CCCCC1; NMeNva = CCC[C@H](NC)C(=O)O; Dap = NC[C@H](N)C(=O)O

System: Escherichia coli (E. coli) strain CFT073 ATCC 700928
Format: cell-based
Details: ATCC 700928, 22 h
Method in brief: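 Broth microdilution MIC per CLSI M07-A8 in cation-adjusted Mueller Hinton II broth with 0.002% Tween-80. Ten-point 2-fold series topped at 64, 4, 0.5 or 0.13 μg/mL depending on protocol. Final inoculum OD600 0.0005, incubated 22 h at 35 °C.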

| SMILES | MIC [µM] |
| --- | --- |
| CCCCCC[C@H]1OCCNC(=O)[C@H](CO)NC(=O)[C@H](CN)NC(=O)[C@H]([C@H](C)CC)NC(=O)[C@H](CC(C)C)N(C)C(=O)[C@@H]1Cc1ccc(C)cc1 [Example 110, (6S,9S,12S,15S,18R,19R)-9-(aminomethyl)-19-hexyl-6-(hydroxymethyl)-15-isobutyl-16-methyl-18-(p-tolylmethyl)-12-[(1R)-1-methylpropyl]-1-oxa-4,7,10,13,16-pentazacyclononadecane-5,8,11,14,17-pentone] (cyclo([Dap]S[X18][NMeL][aIle])) | 25 (≈ 17.9 µg/mL) |
| Cc1ccc(C[C@H]2C(=O)N(C)[C@@H](CC(C)C)C(=O)N[C@@H](C3CCCCC3)C(=O)N[C@@H](CN)C(=O)N[C@@H]([C@H](C)O)C(=O)NCC(=O)O[C@@H]2CCC(F)(F)F)cc1 [Example 112, (6S,9S,12S,15S,18R,19R)-9-(aminomethyl)-12-cyclohexyl-15-isobutyl-16-methyl-18-(p-tolylmethyl)-6-[(1S)-1-hydroxyethyl]-19-(3,3,3-trifluoropropyl)-1-oxa-4,7,10,13,16-pentazacyclononadecane-2,5,8,11,14,17-hexone] | 71 (≈ 55.6 µg/mL) |
| CCCCCC[C@H]1OCCNC(=O)[C@H](CO)NC(=O)[C@H](CN)NC(=O)[C@H]([C@H](C)CC)NC(=O)[C@H](CC(C)C)N(C)C(=O)[C@@H]1C [Example 113, (6S,9S,12S,15S,18R,19R)-9-(aminomethyl)-19-hexyl-6-(hydroxymethyl)-15-isobutyl-16,18-dimethyl-12-[(1R)-1-methylpropyl]-1-oxa-4,7,10,13,16-pentazacyclononadecane-5,8,11,14,17-pentone] (cyclo([Dap]S[X14][NMeL][aIle])) | 50 (≈ 31.3 µg/mL) |
| CCCCCC[C@H]1OC(=O)CNC(=O)[C@H](CNC(N)=O)NC(=O)[C@H](CN)NC(=O)[C@H](C2CCCCC2)NC(=O)[C@H](CC(C)C)N(C)C(=O)[C@@H]1C [Example 116, [(6S,9S,12S,15S,18R,19R)-9-(aminomethyl)-12-cyclohexyl-19-hexyl-15-isobutyl-16,18-dimethyl-2,5,8,11,14,17-hexaoxo-1-oxa-4,7,10,13,16-pentazacyclononadec-6-yl]methylurea] | 50 (≈ 35.4 µg/mL) |
| CC(C)C[C@H]1C(=O)N[C@@H](C2CCCCC2)C(=O)N[C@@H](CN)C(=O)N[C@@H]([C@H](C)O)C(=O)NCC(=O)O[C@H](CCCCC(F)CF)[C@@H](C)C(=O)N1C (stereo partly drawn) [Example 117, (6S,9S,12S,15S,18R,19R)-9-(aminomethyl)-12-cyclohexyl-19-(5,6-difluorohexyl)-15-isobutyl-16,18-dimethyl-6-[(1S)-1-hydroxyethyl]-1-oxa-4,7,10,13,16-pentazacyclononadecane-2,5,8,11,14,17-hexone] | 25 (≈ 17.9 µg/mL) |
| CCCCCC[C@H]1OC(=O)CNC(=O)[C@H]([C@H](C)O)NC(=O)[C@H](CN)NC(=O)[C@H](C2CCCCC2)NC(=O)[C@H](CC(C)C)N(C)C(=O)[C@@H]1Cc1cccc(C)c1 [Example 119, (6S,9S,12S,15S,18R,19R)-9-(aminomethyl)-12-cyclohexyl-19-hexyl-15-isobutyl-16-methyl-18-(m-tolylmethyl)-6-[(1S)-1-hydroxyethyl]-1-oxa-4,7,10,13,16-pentazacyclononadecane-2,5,8,11,14,17-hexone] | 3.1 (≈ 2.39 µg/mL) |
| CCCCCC[C@H]1OC(=O)CNC(=O)[C@H]([C@H](C)O)NC(=O)[C@H](CN)NC(=O)[C@H](C2CCCCC2)NC(=O)[C@H](CC(C)C)N(C)C(=O)[C@@H]1Cc1ccccc1C [Example 120, (6S,9S,12S,15S,18R,19R)-9-(aminomethyl)-12-cyclohexyl-19-hexyl-15-isobutyl-16-methyl-18-(o-tolylinethyl)-6-[(1S)-1-hydroxyethyl]-1-oxa-4,7,10,13,16-pentazacyclononadecane-2,5,8,11,14,17-hexone] | 3.1 (≈ 2.39 µg/mL) |
| CCCCCC[C@H]1OC(=O)CNC(=O)[C@H]([C@H](C)O)NC(=O)[C@H](CN)NC(=O)[C@H](C2CCCCC2)NC(=O)[C@H](CC(C)C)N(C)C(=O)[C@@H]1Cc1ccc(C(F)(F)F)cc1 [Example 121, (6S,9S,12S,15S,18R,19R)-9-(aminomethyl)-12-cyclohexyl-19-hexyl-15-isobutyl-16-methyl-6-[(1S)-1-hydroxyethyl]-18-[[4-(trifluoromethyl)phenyl]methyl]-1-oxa-4,7,10,13,16-pentazacyclononadecane-2,5,8,11,14,17-hexone] | 6.3 (≈ 5.2 µg/mL) |
| CCC(F)CCC[C@H]1OC(=O)CNC(=O)[C@H]([C@H](C)O)NC(=O)[C@H](CN)NC(=O)[C@H]([C@H](C)CC)NC(=O)[C@H](CC(C)C)N(C)C(=O)[C@@H]1C (stereo partly drawn) [Example 122, (6S,9S,12S,15S,18R,19R)-9-(aminomethyl)-19-(4-fluorohexyl)-15-isobutyl-16,18-dimethyl-6-[(1S)-1-hydroxyethyl]-12-[(1R)-1-methylpropyl]-1-oxa-4,7,10,13,16-pentazacyclononadecane-2,5,8,11,14,17-hexone] | 25 (≈ 16.8 µg/mL) |
| CCCCCC[C@H]1OC(=O)CNC(=O)[C@H]([C@H](C)O)NC(=O)[C@H](CN)NC(=O)[C@H](C2CCCCC2)NC(=O)[C@H](CC(C)C)N(C)C(=O)[C@@H]1Cc1ccc(OC)cc1 [Example 123, (6S,9S,12S,15S,18R,19R)-9-(aminomethyl)-12-cyclohexyl-19-hexyl-6-[(1S)-1-hydroxyethyl]-15-isobutyl-18-[(4-methoxyphenyl)methyl]-16-methyl-1-oxa-4,7,10,13,16-pentazacyclononadecane-2,5,8,11,14,17-hexone] | 12 (≈ 9.44 µg/mL) |

Results, then the molecule that gave them:

| MIC [µM] | SMILES |
| --- | --- |
| 8.8 (≈ 5.74 µg/mL) | CCCCCC[C@H]1OC(=O)CNC(=O)[C@H]([C@H](C)O)NC(=O)[C@H](CN)NC(=O)[C@H](C2CCCCC2)NC(=O)[C@H](CC)N(C)C(=O)[C@@H]1C [Example 111, (6S,9S,12S,15S,18R,19R)-9-(aminomethyl)-12-cyclohexyl-15-ethyl-19-hexyl-16,18-dimethyl-6-[(1S)-1-hydroxyethyl]-1-oxa-4,7,10,13,16-pentazacyclononadecane-2,5,8,11,14,17-hexone] |
| 15 (≈ 11.1 µg/mL) | CC(C)C[C@H]1C(=O)N[C@@H](C2CCCCC2)C(=O)N[C@@H](CN)C(=O)N[C@@H]([C@H](C)O)C(=O)NCC(=O)O[C@H](CCCCCCC(C)(C)O)[C@@H](C)C(=O)N1C [Example 114, (6S,9S,12S,15S,18R,19R)-9-(aminomethyl)-12-cyclohexyl-19-(7-hydroxy-7-methyl-octyl)-15-isobutyl-16,18-dimethyl-6-[(1S)-1-hydroxyethyl]-1-oxa-4,7,10,13,16-pentazacyclononadecane-2,5,8,11,14,17-hexone] |
| 8.7 (≈ 5.8 µg/mL) | CCCCCC[C@H]1OCCNC(=O)[C@H]([C@H](C)O)NC(=O)[C@H](CN)NC(=O)[C@H](C2CCCCC2)NC(=O)[C@H](CC(C)C)N(C)C(=O)[C@@H]1C [Example 115, (6S,9S,12S,15S,18R,19R)-9-(aminomethyl)-12-cyclohexyl-19-hexyl-15-isobutyl-16,18-dimethyl-6-[(1S)-1-hydroxyethyl]-1-oxa-4,7,10,13,16-pentazacyclononadecane-5,8,11,14,17-pentone] (cyclo([Chg][Dap][aThr][X14][NMeL])) |
| 4.4 (≈ 3 µg/mL) | CCCCCC[C@H]1OC(=O)CNC(=O)[C@H]([C@H](C)O)NC(=O)[C@H](CO)NC(=O)[C@H](C2CCCCC2)NC(=O)[C@H](CC(C)C)N(C)C(=O)[C@@H]1C [Example 118, (6S,9S,12S,15S,18R,19R)-12-cyclohexyl-19-hexyl-9-(hydroxymethyl)-15-isobutyl-16,18-dimethyl-6-[(1S)-1-hydroxyethyl]-1-oxa-4,7,10,13,16-pentazacyclononadecane-2,5,8,11,14,17-hexone] |
| 18 (≈ 12.7 µg/mL) | CCCCCC[C@H]1OC(=O)CNC(=O)[C@H](CNC(C)=O)NC(=O)[C@H](CN)NC(=O)[C@H](C2CCCCC2)NC(=O)[C@H](CC(C)C)N(C)C(=O)[C@@H]1C [Example 124, N-[[(6S,9S,12S,15S,18R,19R)-9-(aminomethyl)-12-cyclohexyl-19-hexyl-15-isobutyl-16,18-dimethyl-2,5,8,11,14,17-hexaoxo-1-oxa-4,7,10,13,16-pentazacyclononadec-6-yl]methyl]acetamide] |
| 3.2 (≈ 2.22 µg/mL) | CCCCCC[C@H]1OC(=O)CNC(=O)[C@H]([C@H](C)O)NC(=O)[C@H]([C@H](C)N)NC(=O)[C@H](C2CCCCC2)NC(=O)[C@H](CC(C)C)N(C)C(=O)[C@@H]1C [Example 125, (6S,9S,12S,15S,18R,19R)-12-cyclohexyl-19-hexyl-15-isobutyl-16,18-dimethyl-9-[(1S)-1-aminoethyl]-6-[(1S)-1-hydroxyetltyl]-1-oxa-4,7,10,13,16-pentazacyclononadecane-2,5,8,11,14,17-hexone] |
| 3.1 (≈ 2.15 µg/mL) | CCCCCC(C)[C@H]1OC(=O)CNC(=O)[C@H]([C@H](C)O)NC(=O)[C@H](CN)NC(=O)[C@H](C2CCCCC2)NC(=O)[C@H](CC(C)C)N(C)C(=O)[C@@H]1C (stereo partly drawn) [Example 126, (6S,9S,12S,15S,18R,19R)-9-(aminomethyl)-12-cyclohexyl-15-isobutyl-16,18-dimethyl-19-(1-methylhexyl)-6-[(1S)-1-hydroxyethyl]-1-oxa-4,7,10,13,16-pentazacyclononadecane-2,5,8,11,14,17-hexone] |
| 4.4 (≈ 2.93 µg/mL) | CCCCCC[C@H]1OC[C@@H](C)NC(=O)[C@H]([C@H](C)O)NC(=O)[C@H](CN)NC(=O)[C@H](C2CCCCC2)NC(=O)[C@H](CCC)N(C)C(=O)[C@@H]1C [Example 127, (3R,6S,9S,12S,15S,18R,19R)-9-(aminomethyl)-12-cyclohexyl-19-hexyl-3,16,18-trimethyl-15-propyl-6-[(1S)-1-hydroxyethyl]-1-oxa-4,7,10,13,16-pentazacyclononadecane-5,8,11,14,17-pentone] (cyclo([Chg][Dap][aThr][X2][NMeNva])) |
| 3.1 (≈ 2.11 µg/mL) | CCCCCC[C@H]1OC[C@@H](C)NC(=O)[C@H](COC)NC(=O)[C@H](CN)NC(=O)[C@H](C2CCCCC2)NC(=O)[C@H](CC(C)C)N(C)C(=O)[C@@H]1C [Example 128, (3R,6S,9S,12S,15S,18R,19R)-9-(aminomethyl)-12-cyclohexyl-19-hexyl-15-isobutyl-6-(methoxymethyl)-3,16,18-trimethyl-1-oxa-4,7,10,13,16-pentazacyclononadecane-5,8,11,14,17-pentone] (cyclo([Chg][Dap]S(Me)[X2][NMeL])) |
